Measured values taken from patent US11136304B2, “Salts of a heterocyclic compound and crystalline forms, processes for preparing, therapeutic uses, and pharmaceutical compositions thereof” (Sunovion Pharmaceuticals Inc., priority 2019, dated 2021).
Counter-ions that a name gives are not always drawn.

Assay: Stability study (storage at 60° C. and 60° C. 75% RH, measured by HPLC)
Format: physicochemical
Design: Stability Study Results (HPLC): unit not given here
Conditions: for stability: stored at 60° C. and 60° C. 75% RH for 1 month, measured at 20 days and 1 month by HPLC
Protocol: Each sample was stored at 60° C. and 60° C. 75% RH for 1 month. Each sample was measured at 20 days and 1 month by HPLC. HPLC conditions are described below.
Column: Waters XSelect CSH C18, 4.6×150 mm, 3.5 μm
MPA: 50 mM HClO4 in water (pH=3)
MPB: MeOH/acetonitrile (9:1)

Row | stability | Stability Study Results (HPLC) (1 month at 60° C.) | Stability Study Results (HPLC) (1 month at 60° C. 75% RH) | Stability Study Results (HPLC) (20 day at 60° C.) | Stability Study Results (HPLC) (20 days at 60° C. 75% RH) | Stability Study Results (HPLC) (Initial) | stability (phosphate) | Molecule
1 | stable | – | – | – | – | – | – | CNC[C@@H]1OCCc2cccc(F)c21.Cl [Hydrochloride, (R)-1-(8-fluoroisochroman-1-yl)-N-methylmethanamine hydrochloride]
2 | stable | – | – | – | – | – | – | CNC[C@@H]1OCCc2cccc(F)c21.O=C(O)C(O)C(O)C(=O)O [L-tartrate, (R)-1-(8-fluoroisochroman-1-yl)-N-methylmethanamine L-tartrate]
3 | stable | – | – | – | – | – | – | CNC[C@@H]1OCCc2cccc(F)c21.O=C(O)/C=C/C(=O)O [Fumarate, (R)-1-(8-fluoroisochroman-1-yl)-N-methylmethanamine fumarate]
4 | – | 99.60 | 99.64 | 99.54 | 99.67 | 99.48 | – | O=C(O)/C=C/C(=O)O [Fumaric acid]
5 | – | 98.89 | 99.05 | 98.50 | 99.07 | 98.94 | – | Cl [HCl]
6 | – | 99.14 | 99.23 | 99.13 | 99.23 | 99.10 | – | L-Tartaric
7 | – | – | – | – | – | – | stable | CNC[C@@H]1OCCc2cccc(F)c21 [Phosphate, (R)-1-(8-fluoroisochroman-1-yl)-N-methylmethanamine phosphate]
8 | stable | – | – | – | – | – | – | CNC[C@@H]1OCCc2cccc(F)c21.O=C(O)CC(O)(CC(=O)O)C(=O)O [citrate, (R)-1-(8-fluoroisochroman-1-yl)-N-methylmethanamine citrate]
9 | – | 99.23 | 99.24 | 99.20 | 99.20 | 99.20 | – | O=P(O)(O)O [Compound H3PO4]
10 | unstable | – | – | – | – | – | – | CNC[C@@H]1OCCc2cccc(F)c21 [freebase (amorphous) of Compound 1, (R)-1-(8-fluoroisochroman-1-yl)-N-methylmethanamine]
11 | – | 99.16 | 97.73 | 99.10 | 98.34 | 99.08 | – | O=C(O)CC(O)(CC(=O)O)C(=O)O [Citric acid]
